Measurements taken from patent publication US20060229433A1, “Modified antiviral peptides with increased activity and cell membrane affinity” (priority 2003, published 2006).
pIC50: −log10 of the molar value. Values joined by “and” are separate entries in the source; they are usually repeats but may differ in a detail not shown here. Equal entries are not always repeated.

Key:
Type in all cases: cell-based
[1] = tested on: HIV-1 NDK; assay: HIV-1 infection of C8166 cells (syncytia formation, p24 ELISA) with HIV-1 NDK; parameters: key to syncitia formed, Day 4 / syncitia formed, Day 5 / syncitia formed, Day 6 / syncitia formed, Day 7: ++, +, (+), (+)− and − represent decreasing numbers of syncitia formed; ++, +, (+), (+)− and − represent decreasing numbers of syncitia formed; ++, +, (+), (+)− and − represent decreasing numbers of syncitia formed; ++, +, (+), (+)− and − represent decreasing numbers of syncitia formed; ++, +, (+), (+)− and − represent decreasing numbers of syncitia formed; settings: for P 24: P 24 after Day 7
How it was run: (§1)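 Infection was read out as syncytia and as cell-free p24 in supernatants (ELISA) from C8166 cells that received HIV-1 (1000 TCID50/ml, 1 h, 37 °C) after a 1 h peptide pretreatment. Peptide stayed on before, during and after adsorption. Toxicity was checked by daily trypan-blue counts.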

[2] = tested on: HIV-1 NL 4-3; assay: HIV-1 infection of C8166 cells (syncytia formation, p24 ELISA) with HIV-1 NL 4-3; parameters: key: ++, +, (+), (+)− and − represent decreasing numbers of syncitia formed; ++, +, (+), (+)− and − represent decreasing numbers of syncitia formed; ++, +, (+), (+)− and − represent decreasing numbers of syncitia formed; ++, +, (+), (+)− and − represent decreasing numbers of syncitia formed; ++, +, (+), (+)− and − represent decreasing numbers of syncitia formed
How it was run: as §1

[3] = tested on: HIV-1 NL 4-3; assay: as above
How it was run: as §1

[4] = C8166 cells, HIV-1 subtype B NL 4-3, Table 9, two lines = tested twice, 8 days apart

C[C@H](NC(=O)[C@H](CCCNC(=N)N)NC(=O)CNC(=O)[C@@H]1CCCN1C(=O)CN)C(=O)N[C@@H](Cc1ccccc1)C(=O)NCCCC[C@H](NC(=O)[C@H](Cc1ccccc1)NC(=O)[C@H](C)NC(=O)[C@H](CCCNC(=N)N)NC(=O)CNC(=O)[C@@H]1CCCN1C(=O)CN)C(=O)NCCCC[C@H](NC(=O)[C@H](CCCCNC(=O)[C@H](Cc1ccccc1)NC(=O)[C@H](C)NC(=O)[C@H](CCCNC(=N)N)NC(=O)CNC(=O)[C@@H]1CCCN1C(=O)CN)NC(=O)[C@H](Cc1ccccc1)NC(=O)[C@H](C)NC(=O)[C@H](CCCNC(=N)N)NC(=O)CNC(=O)[C@@H]1CCCN1C(=O)CN)C(=O)NCCCC[C@H](NC(=O)[C@H](CCCCNC(=O)[C@H](CCCCNC(=O)[C@H](Cc1ccccc1)NC(=O)[C@H](C)NC(=O)[C@H](CCCNC(=N)N)NC(=O)CNC(=O)[C@@H]1CCCN1C(=O)CN)NC(=O)[C@H](Cc1ccccc1)NC(=O)[C@H](C)NC(=O)[C@H](CCCNC(=N)N)NC(=O)CNC(=O)[C@@H]1CCCN1C(=O)CN)NC(=O)[C@H](CCCCNC(=O)[C@H](Cc1ccccc1)NC(=O)[C@H](C)NC(=O)[C@H](CCCNC(=N)N)NC(=O)CNC(=O)[C@@H]1CCCN1C(=O)CN)NC(=O)[C@H](Cc1ccccc1)NC(=O)[C@H](C)NC(=O)[C@H](CCCNC(=N)N)NC(=O)CNC(=O)[C@@H]1CCCN1C(=O)CN)C(=O)NCCC(=O)O [SPC3, (GPGRAF)8-K4-K2-K-βA-OH, reference compound]
syncitia formed, Day 4 ([1]; 0.005 μM): −
syncitia formed, Day 5 ([1]; 0.005 μM): +
syncitia formed, Day 6 ([1]; 0.005 μM): ++
syncitia formed, Day 7 ([1]; 0.005 μM): ++/T
P 24 ([1]; 0.005 μM): 23810 pg/mL
syncitia formed, Day 4 ([1]; 0.01 μM): −
syncitia formed, Day 5 ([1]; 0.01 μM): +
syncitia formed, Day 6 ([1]; 0.01 μM): ++
syncitia formed, Day 7 ([1]; 0.01 μM): ++/T
P 24 ([1]; 0.01 μM): 23810 pg/mL
syncitia formed, Day 4 ([1]; 0.05 μM): −
syncitia formed, Day 5 ([1]; 0.05 μM): +
syncitia formed, Day 6 ([1]; 0.05 μM): ++
syncitia formed, Day 7 ([1]; 0.05 μM): ++/T
P 24 ([1]; 0.05 μM): 23810 pg/mL
syncitia formed, Day 4 ([1]; 0.1 μM): −
syncitia formed, Day 5 ([1]; 0.1 μM): (+)
syncitia formed, Day 6 ([1]; 0.1 μM): + and ++
syncitia formed, Day 7 ([1]; 0.1 μM): ++
P 24 ([1]; 0.1 μM): 18810 pg/mL and 20850 pg/mL
syncitia formed, Day 4 ([1]; 0.5 μM): −
syncitia formed, Day 5 ([1]; 0.5 μM): −
syncitia formed, Day 6 ([1]; 0.5 μM): +
syncitia formed, Day 7 ([1]; 0.5 μM): ++
P 24 ([1]; 0.5 μM): 15173 pg/mL and 12840 pg/mL
syncitia formed, Day 4 ([1]; 1 μM): −
syncitia formed, Day 5 ([1]; 1 μM): −
syncitia formed, Day 6 ([1]; 1 μM): −
syncitia formed, Day 7 ([1]; 1 μM): (+)
syncitia formed, Day 4 ([1]; 5 μM): −
syncitia formed, Day 5 ([1]; 5 μM): −
syncitia formed, Day 6 ([1]; 5 μM): −
syncitia formed, Day 7 ([1]; 5 μM): −
pIC50 ([1]; HIV 1 NDK, Table 10): 6.22
IC100 ([1]; HIV 1 NDK, Table 10): 5 µM
Day 4 syncitia formed ([2]; 0.005 μM, Table 6): −
Day 5 syncitia formed ([2]; 0.005 μM, Table 6): +
Day 6 syncitia formed ([2]; 0.005 μM, Table 6): ++
Day 4 syncitia formed ([2]; 0.01 μM, Table 6): −
Day 5 syncitia formed ([2]; 0.01 μM, Table 6): +
Day 6 syncitia formed ([2]; 0.01 μM, Table 6): ++
Day 4 syncitia formed ([2]; 0.05 μM, Table 6): −
Day 5 syncitia formed ([2]; 0.05 μM, Table 6): +
Day 6 syncitia formed ([2]; 0.05 μM, Table 6): ++
Day 4 syncitia formed ([2]; 0.1 μM, Table 6): −
Day 5 syncitia formed ([2]; 0.1 μM, Table 6): (+)
Day 6 syncitia formed ([2]; 0.1 μM, Table 6): + and ++
Day 7 syncitia formed ([2]; 0.1 μM, Table 6): ++
Day 4 syncitia formed ([2]; 0.5 μM, Table 6): −
Day 5 syncitia formed ([2]; 0.5 μM, Table 6): −
Day 6 syncitia formed ([2]; 0.5 μM, Table 6): (+)
Day 7 syncitia formed ([2]; 0.5 μM, Table 6): +
Day 4 syncitia formed ([2]; 1 μM, Table 6): −
Day 5 syncitia formed ([2]; 1 μM, Table 6): −
Day 6 syncitia formed ([2]; 1 μM, Table 6): −
Day 7 syncitia formed ([2]; 1 μM, Table 6): (+)
Day 4 syncitia formed ([2]; 2 μM, Table 1): −
Day 5 syncitia formed ([2]; 2 μM, Table 1): (+) and (+)−
Day 6 syncitia formed ([2]; 2 μM, Table 1): +
Day 7 syncitia formed ([2]; 2 μM, Table 1): ++
Day 4 syncitia formed ([2]; 5 μM, Table 1): −
Day 5 syncitia formed ([2]; 5 μM, Table 1): −
Day 6 syncitia formed ([2]; 5 μM, Table 1): −
Day 7 syncitia formed ([2]; 5 μM, Table 1): −
Day 4 syncitia formed ([2]; 5 μM, Table 6): −
Day 5 syncitia formed ([2]; 5 μM, Table 6): −
Day 6 syncitia formed ([2]; 5 μM, Table 6): −
Day 7 syncitia formed ([2]; 5 μM, Table 6): −
Day 7 syncitia formed ([3]; 0.005 μM, Table 6): ++/T
Day 7 syncitia formed ([3]; 0.01 μM, Table 6): ++/T
Day 7 syncitia formed ([3]; 0.05 μM, Table 6): ++/T
pIC50 ([3]; C8166 cells, HIV-1 subtype B NL 4-3, Table 3): 6.30
pIC50 [3, 4]: 6.30
IC100 [3, 4]: 5 µM
P 24 ([3]; Day 4, 5 μM, Table 1): NEG
P 24 ([3]; Day 4, 5 μM, Table 2): NEG
P 24 ([3]; Day 7, 0.005 μM, Table 6): 23810 pg/mL
P 24 ([3]; Day 7, 0.01 μM, Table 6): 23810 pg/mL
P 24 ([3]; Day 7, 0.05 μM, Table 6): 23810 pg/mL
P 24 ([3]; Day 7, 0.1 μM, Table 6): 17810 pg/mL and 19850 pg/mL
P 24 ([3]; Day 7, 0.5 μM, Table 6): 5173 pg/mL and 4840 pg/mL
P 24 ([3]; Day 7, 2 μM, Table 1): 7589 pg/mL and 14787 pg/mL
P 24 ([3]; Day 7, 5 μM, Table 1): NEG
P 24 ([3]; Day 7, 5 μM, Table 2): 288 pg/mL and 342 pg/mL
P 24 ([3]; Day 7, 5 μM, Table 6): 3 pg/mL
